Results on three compounds are retold here after ChEMBL document CHEMBL5126511, “The evolution paths of some reprehensive scaffolds of RORγt modulators, a perspective from medicinal chemistry” (Eur J Med Chem, 2022).

Series [1] in a line: Metabolic stability in rat liver microsomes assessed as intrinsic clearance. Format: ADME, Microsome. To be noted: read-out: CLH. A general note: Liver microsomes are vesicles of endoplasmic reticulum, rich in cytochrome P450 enzymes.
The nature of series [2]: Metabolic stability in human liver microsomes assessed as clearance. Type of series: ADME, Microsome. To be noted: read-out: CLH.

On to `Cc1ncc(C(=O)Nc2cn3ccnc3c(CN3CCN(c4noc(C(C)(C)C)n4)[C@@H](C)C3)c2C)cn1`, for which the microsomal CLint in series [1] was under 25 µL/min/mg.

On to `Cc1ncc(C(=O)Nc2cc(Cl)cc(CN3CCN(C(=O)C4CCCC4)[C@@H](C)C3)c2C)cn1`, for which the microsomal CLint is 33 µL/min/mg in series [1] and 97 µL/min/mg in series [2].

On to `Cc1ncc(C(=O)Nc2cn3ccnc3c(CN3CCN(C(=O)C4CCCC4)[C@@H](C)C3)c2C)cn1`, for which the microsomal CLint in series [2] was 30 µL/min/mg.
